Data as given in US12528767B2, “HDAC6 inhibitors and uses thereof” (Eikonizo Therapeutics, Inc., priority 2019, dated 2026).
pIC50: −log10 of the molar value. Like-named read-outs stand apart in the source and are kept apart here.

Assays:
Full length Human HDAC8 = molecular target: T1, Full length Human HDAC8 (Homo sapiens, UniProt Q9BY41)
T1 sequence (Q9BY41 1-377): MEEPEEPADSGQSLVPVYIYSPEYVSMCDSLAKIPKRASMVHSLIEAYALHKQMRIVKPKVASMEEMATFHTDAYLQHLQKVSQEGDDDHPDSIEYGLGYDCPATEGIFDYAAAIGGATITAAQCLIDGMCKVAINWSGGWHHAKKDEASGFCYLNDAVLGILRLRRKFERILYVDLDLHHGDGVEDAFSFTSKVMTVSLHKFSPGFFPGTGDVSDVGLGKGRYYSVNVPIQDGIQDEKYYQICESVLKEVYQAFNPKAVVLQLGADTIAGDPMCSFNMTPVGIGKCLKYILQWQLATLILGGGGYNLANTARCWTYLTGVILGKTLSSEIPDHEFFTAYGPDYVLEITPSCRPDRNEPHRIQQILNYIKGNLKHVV

Full length Human HDAC6 = molecular target: T2, Full length Human HDAC6 (Homo sapiens, UniProt Q9UBN7); conditions: for Selectivity (6 v 8) (fold): ratio of HDAC8 IC50/HDAC6 IC50
T2 sequence (Q9UBN7 1-1215): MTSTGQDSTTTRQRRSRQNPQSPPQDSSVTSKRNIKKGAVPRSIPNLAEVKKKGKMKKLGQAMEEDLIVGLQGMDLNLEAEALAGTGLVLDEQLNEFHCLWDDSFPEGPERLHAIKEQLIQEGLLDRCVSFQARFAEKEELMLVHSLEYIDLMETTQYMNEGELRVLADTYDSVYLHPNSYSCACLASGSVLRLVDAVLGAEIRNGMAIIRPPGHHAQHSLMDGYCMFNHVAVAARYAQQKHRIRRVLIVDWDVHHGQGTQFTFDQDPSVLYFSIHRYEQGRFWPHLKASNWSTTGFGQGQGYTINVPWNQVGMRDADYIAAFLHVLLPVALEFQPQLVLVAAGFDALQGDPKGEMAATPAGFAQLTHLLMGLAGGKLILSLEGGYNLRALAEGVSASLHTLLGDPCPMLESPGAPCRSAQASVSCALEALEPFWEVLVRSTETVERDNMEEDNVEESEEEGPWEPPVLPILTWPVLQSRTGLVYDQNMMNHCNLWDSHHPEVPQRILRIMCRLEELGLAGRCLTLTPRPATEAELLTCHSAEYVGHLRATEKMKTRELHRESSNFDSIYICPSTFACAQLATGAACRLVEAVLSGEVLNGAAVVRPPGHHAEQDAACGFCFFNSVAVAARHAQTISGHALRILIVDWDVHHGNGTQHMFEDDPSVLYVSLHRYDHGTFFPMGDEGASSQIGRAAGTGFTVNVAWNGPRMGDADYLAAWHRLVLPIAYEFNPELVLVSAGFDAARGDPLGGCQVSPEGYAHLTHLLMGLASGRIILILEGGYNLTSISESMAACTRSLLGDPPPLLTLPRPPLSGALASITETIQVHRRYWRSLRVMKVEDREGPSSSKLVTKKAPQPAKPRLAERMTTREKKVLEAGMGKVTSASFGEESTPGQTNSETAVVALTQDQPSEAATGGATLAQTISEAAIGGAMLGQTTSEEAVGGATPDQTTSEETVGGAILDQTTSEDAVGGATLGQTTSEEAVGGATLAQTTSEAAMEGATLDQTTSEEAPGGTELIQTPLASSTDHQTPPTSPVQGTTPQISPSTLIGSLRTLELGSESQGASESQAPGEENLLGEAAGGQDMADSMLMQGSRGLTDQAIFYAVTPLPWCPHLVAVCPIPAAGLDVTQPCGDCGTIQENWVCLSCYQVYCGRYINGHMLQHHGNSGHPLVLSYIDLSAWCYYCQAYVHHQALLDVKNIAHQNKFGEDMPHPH

| SMILES | pIC50 (Full length Human HDAC8) | pIC50 (Full length Human HDAC6) | Selectivity (6 v 8) (fold) (Full length Human HDAC6; Table 1, number) | Selectivity (6 v 8) (fold) (Full length Human HDAC6; Table 1, range class) |
| --- | --- | --- | --- | --- |
| O=C(NO)c1cc(F)c2c(c1)CCN(CC13C4C5C6C4C1C6C53)C2 (centres unmarked) [compound 25] | 4.00 to 5.00 | 7.00 to 9.00 | – | – |
| CC[C@@H]1CCCN1Cc1ccc(C(=O)NO)cc1F (single isomer, unassigned) [compound 48] | – | – | 15.6 fold | III (III: >10-100) |
| O=C(NO)c1ccc2c(c1)CCN(CC13CC4CC(CC(C4)C1)C3)C2 [compound 26] | 5.00 to 6.00 | 7.00 to 9.00 | 69.7 fold | III (III: >10-100) |
| O=C(NO)c1ccc2c(c1)CN1CCCC[C@H]1C2 (single isomer, unassigned) [compound 144] | – | – | 26.7 fold | III (III: >10-100) |
| CC1(CN2CCc3cc(C(=O)NO)cc(F)c3C2)CC1 [compound 1, 8-fluoro-N-hydroxy-2-((1-methylcyclopropyl)methyl)-1,2,3,4-tetrahydroisoquinoline-6-carboxamide] | 4.00 to 5.00 | 7.00 to 9.00 | 145.7 fold | IV (IV: >100-1000) |
| CN1Cc2cc(C(=O)NO)ccc2CN1Cc1ccccc1 [compound 118, 2-benzyl-N-hydroxy-3-methyl-1,2,3,4-tetrahydrophthalazine-6-carboxamide] | 5.00 to 6.00 | 7.00 to 9.00 | – | – |
| Cc1cccc(C)c1CN1CCc2cc(C(=O)NO)cc(F)c2C1 [compound 28] | 5.00 to 6.00 | 7.00 to 9.00 | – | – |
| O=C(NO)c1ccc(CN2CC3(COC3)C2)c(F)c1 [compound 72] | 6.00 to 7.00 | 7.00 to 9.00 | 44.8 fold | III (III: >10-100) |
| CC[C@H]1CCCN1Cc1ccc(C(=O)NO)cc1F (single isomer, unassigned) [compound 49] | – | – | 15.4 fold | III (III: >10-100) |
| O=C(NO)c1ccc2c(c1F)CCN(CC13CC4CC(CC(C4)C1)C3)C2 [compound 21] | 5.00 to 6.00 | 6.00 to 7.00 | 50.2 fold | III (III: >10-100) |
| O=C(NO)c1cc(F)c2c(c1)CCN(CC(F)(F)F)C2 [compound 7] | 5.00 to 6.00 | 7.00 to 9.00 | – | – |
| O=C(NO)c1ccc(CN2CCC3(CCCC3)C2)c(F)c1 [compound 73] | 5.00 to 6.00 | 7.00 to 9.00 | 35.8 fold | III (III: >10-100) |
| O=C(NO)c1ccc(CN2CCC3(CC2)C2CC4CC(C2)CC3C4)c(F)c1 [compound 167, 3-fluoro-N-hydroxy-4-(((1r,3r,5r,7r)-spiro[adamantane-2,4′-piperidin]-1′-yl)methyl)benzamide] | 5.00 to 6.00 | 7.00 to 9.00 | 41.9 fold | III (III: >10-100) |
| CN1Cc2cc(C(=O)NO)ccc2[C@H]2CCCN21 (single isomer, unassigned) [compound 161] | – | – | 2 fold | II (II: >1-10) |
| O=C(NO)c1ccc2c(c1)CN1CCC[C@@H]21 (single isomer, unassigned) [compound 165] | 5.00 to 6.00 | 6.00 to 7.00 | 15 fold | III (III: >10-100) |
| CN1CC2CCC(C1)N2Cc1ccc(C(=O)NO)cc1F [compound 56] | 6.00 to 7.00 | 7.00 to 9.00 | 19 fold | III (III: >10-100) |
| CN1Cc2cc(C(=O)NO)ccc2-c2cccn21 [compound 162, N-hydroxy-5-methyl-5,6-dihydropyrrolo[2,1-a]phthalazine-8-carboxamide] | 5.00 to 6.00 | 6.00 to 7.00 | 2.8 fold | II (II: >1-10) |
| O=C(NO)c1cc(F)c2c(c1)CCN(CC1CCC1)C2 [compound 3] | 5.00 to 6.00 | 7.00 to 9.00 | – | – |

| SMILES | pIC50 (Full length Human HDAC8) | pIC50 (Full length Human HDAC6) | Selectivity (6 v 8) (fold) (Full length Human HDAC6; Table 1, number) | Selectivity (6 v 8) (fold) (Full length Human HDAC6; Table 1, range class) |
| --- | --- | --- | --- | --- |
| O=C(NO)c1cc(F)c2c(c1)CCN(CC1CC1)C2 [compound 2] | 5.00 to 6.00 | 7.00 to 9.00 | – | – |
| CC1(C)C[C@@H]2Cc3cc(C(=O)NO)cc(F)c3CN2C1 (single isomer, unassigned) [compound 126] | – | – | 37.4 fold | III (III: >10-100) |
| CC[C@H](c1ccccc1)N1CCc2cc(C(=O)NO)cc(F)c2C1 (single isomer, unassigned) [compound 30] | – | – | 262.4 fold | IV (IV: >100-1000) |
| O=C(NO)c1ccc(CN2CCCOCC2)c(F)c1 [compound 47] | 6.00 to 7.00 | 7.00 to 9.00 | 22.3 fold | III (III: >10-100) |
| O=C(NO)c1cc(F)c2c(c1)C[C@H]1CCC3(CCCCC3)CN1C2 (single isomer, unassigned) [compound 138] | 4.00 to 5.00 | 6.00 to 7.00 | 45 fold | III (III: >10-100) |
| O=C(NO)c1ccc2c(c1)CN1CCCC[C@@H]1C2 (single isomer, unassigned) [compound 143] | – | – | 88.8 fold | III (III: >10-100) |
| O=C(NO)c1ccc2c(c1)CN1CCC[C@H]21 (single isomer, unassigned) [compound 164] | – | – | 2.3 fold | II (II: >1-10) |
| O=C(NO)c1ccc2c(c1)CCN1CCCC[C@H]21 (single isomer, unassigned) [compound 90] | – | – | 3.6 fold | II (II: >1-10) |
| O=C(NO)c1cc(F)c2c(c1)C[C@@H]1CCC3(CCCCC3)CN1C2 (single isomer, unassigned) [compound 137] | – | – | 126.4 fold | IV (IV: >100-1000) |
| O=C(NO)c1cc(F)c2c(c1)C[C@H]1COCCN1C2 (single isomer, unassigned) [compound 130] | – | – | >2.8 fold | V (V: >1000) |
| O=C(NO)c1ccc2c(c1)CCN1CCC[C@H]21 (single isomer, unassigned) [compound 148] | – | – | 1.9 fold | II (II: >1-10) |
| O=C(NO)c1ccc2c(c1)C[C@H]1CCCN1C2 (single isomer, unassigned) [compound 122] | – | – | 14.5 fold | III (III: >10-100) |
| CC[C@@H](c1ccccc1)N1CCc2cc(C(=O)NO)cc(F)c2C1 (single isomer, unassigned) [compound 31] | – | – | 468.8 fold | IV (IV: >100-1000) |
| O=C(NO)c1cc(F)c2c(c1)C[C@@H]1COCCN1C2 (single isomer, unassigned) [compound 129] | – | – | >2.9 fold | V (V: >1000) |
| O=C(NO)c1ccc2c(c1)CCN1CCCC[C@@H]21 (single isomer, unassigned) [compound 89] | – | – | 3.1 fold | II (II: >1-10) |
| O=C(NO)c1ccc2c(c1)CCN1CCC[C@@H]21 (single isomer, unassigned) [compound 149] | – | – | 6.5 fold | II (II: >1-10) |
| CN1Cc2cc(C(=O)NO)ccc2[C@@H]2CCCN21 (single isomer, unassigned) [compound 160] | – | – | 1.8 fold | II (II: >1-10) |
